Experiments:
[1] = tested on: Salmonella typhimurium TA102; assay: AMES test, mutagenic evaluation in Salmonella typhimurium TA102 strain with/without metabolic activation (S9); type: cell-based
Procedure: (§1) The procedure was firstly developed by (MARON, D. M. and AMES, B. N. Mut. Res. v. 113, pp. 173-215, 1983)
(§2) For this assay, Salmonella typhimurium TA100 and TA102 strains from the mutagenicity laboratory of the “Faculdade de Ciências Farmacêuticas—UNESP Araraquara” were used. Such strains have the following characteristics: (AMES, 1983)
(§3) The positive controls are mutagenic compounds specific for each strain and test condition, with 25 μL/plate of sodium azide (1.25 μg/plate) and 100 μL of mitomycin (0.5 μg/plate) being the controls for TA100 and TA102, respectively, in the absence of metabolic activation. For assays with metabolic activation, the positive control for TA100 is 50 μL 2-antramine (1.25 μg/plate) and for TA102 it is 50 μL 2-aminofluorene (1.25 μg/plate).
(§4) The preincubation method was used.
(§5) In laminar flow, Salmonella typhimurium (TA100 and TA 102) strains were inoculated individually with a platinum loop, in the respective nutrient broths and maintained at 37° C., under constant stirring (160 rpm) during 14 hours, in order to achieve a density of 1 to 2×10^9 bacteria/mL.
(§6) Different concentrations of the compounds were added into 100 μL of 0.2M phosphate buffer pH 7.4 (or 500 μL of the mixture S9 in metabolic activation assays) and incubated for 20-30 minutes at 37° C. Solutions containing the compounds had DMSO as the solvent. Thereafter, 2 mL of top agar supplemented with traces of histidine and biotin was added, homogenized and plated in glycosylated minimum medium. After solidification of the top agar, the plates were incubated for 48 hours at a 37° C. Then, the counting of the number of revertant colonies per plate was performed. All tested concentrations, positive and negative controls were run in triplicate.
(§7) After 48 hours, the revertant colonies were counted manually, and the protoCOL Colony Counter Version 3.15.630 (1998-2001) SYNBIOSIS LTD system was used for the positive control.
(§8) The final data obtained from the assay was analyzed using the statistical software Salanal (Salmonella Assay Analysis) version 1.0 from the Research Triangle Institute, RTP, North Carolina, USA. Such software allows the dose-response effect to be evaluated by means of analysis of variance (ANOVA-test F) computations between the measurement of the number of revertants at the different tested concentrations (doses) and the negative control, followed by a linear regression. The software model chosen for analyzing the data was Bernstein's (BERNSTEIN, L. et al. Mutat. Res. v. 97, p. 267-281, 1982). The slope of the straight line from the linear portion of the dose-response curve is also provided by this software and corresponds to the number of revertants induced per measurement unit of the analyzed sample.
(§9) From the results, the mutagenicity ratio (MR) was computed for each analyzed dose from each compound. MR is given by the following equation:
(§10) MR=average number of revertants per test plate (spontaneous+induced revertants) […] average number of revertants per plate of the negative control (spontaneous revertants)
(§11) The spontaneous growing means that the number of revertants which developed on the plate, regardless of being induced or not, wherein values higher or equal to 2 are considered as a positive response (VALENT, G. V. et al. Env. Toxicol. Water Quality. v. 8, p. 371-381, 1993).
(§12) The mutagenicity test with metabolic activation system was performed with a microsomal fraction S9 (S9 mix) prepared from a liver homogenizate from Sprague Dawley rats, previously treated with Aroclor 1254, acquired in the freeze-dried form.
(§13) The procedure for this assay is the same, however, instead of the buffer, 500 μL of the S9 mixture should be added.
(§14) The S9 mixture has a viability of 4 hours from preparation when put on ice. The plates are then incubated for 48 hours at 37° C. After the required time has elapsed, the counting of the revertant colonies was carried out. All tested concentrations, positive and negative controls were run in triplicate.

[2] = tested on: Salmonella typhimurium TA100; assay: AMES test, mutagenic evaluation in Salmonella typhimurium TA100 strain with/without metabolic activation (S9); type: cell-based
Procedure: as §1, §2, §3, §4, §5, §6, §7, §8, §9, §10, §11, §12, §13, §14

[3] = tested on: leukocyte infiltration, peritonitis induced by thioglycolate; assay: Peritonitis assay induced by 3% thioglycolate; type: in vivo; settings: 300 μMol/Kg orally, mouse, 3% thioglycolate i.p., 4 h
Procedure: In a second assay, the number of total leukocytes (10^6/mL) was evaluated in order to evaluate the ability to inhibit their infiltration in the inflammatory process.
The mice were treated with the substances being analyzed or carrier and after 1 h of oral administration, they were simultaneously subjected to the peritonitis assay, by administering intraperitoneally 1 ml of a 3% thioglycolate solution. 4 h after the administration of thioglycolate, the peritoneal cavity was washed with 3 ml of a HANKS solution (Balanced salt solution, free of Ca^2+ and Mg^2+). Next, the peritoneal wash was analyzed and the total counting of white blood cells was made in a Newbauer's chamber under an optical microscope with a 40× objective.

gamma-globin mRNA = settings: 48 hours, data in the literature; cited from earlier work

Question: For `O=C1c2ccccc2C(=O)N1c1cccc(CO[N+](=O)[O-])c1` [Compound IC, 3-(1,3-dioxo-1,3-dihydro-2H-isoindol-2-yl)benzyl nitrate], which “mutagenicity ratio (MR)” value ([1]; TA 102, +S9, 0.224 μmol/plate) is on record?
Answer: 0.73

Question: And the “number of revertants per plate” value ([1]; TA 102, +S9, 0.224 μmol/plate)?
Answer: 272 ± 26 revertants/plate

Question: What about the “mutagenicity ratio (MR)” value ([1]; TA 102, +S9, 0.488 μmol/plate) of the same molecule?
Answer: 1.01

Question: What about the “number of revertants per plate” value ([1]; TA 102, +S9, 0.488 μmol/plate) of the same molecule?
Answer: 378 ± 6.1 revertants/plate

Question: And the “mutagenicity ratio (MR)” value ([1]; TA 102, +S9, 0.896 μmol/plate)?
Answer: 1.09

Question: What about the “number of revertants per plate” value ([1]; TA 102, +S9, 0.896 μmol/plate) of the same molecule?
Answer: 405 ± 11 revertants/plate

Question: And the “mutagenicity ratio (MR)” value ([1]; TA 102, +S9, 1.8 μmol/plate)?
Answer: 1.07

Question: And the “number of revertants per plate” value ([1]; TA 102, +S9, 1.8 μmol/plate)?
Answer: 399.3 ± 40 revertants/plate

Question: What about the “mutagenicity ratio (MR)” value ([1]; TA 102, +S9, 3.58 μmol/plate) of the same molecule?
Answer: 1.15

Question: What about the “number of revertants per plate” value ([1]; TA 102, +S9, 3.58 μmol/plate) of the same molecule?
Answer: 431 ± 17.9 revertants/plate

Question: And the “mutagenicity ratio (MR)” value ([1]; TA 102, −S9, 0.224 μmol/plate)?
Answer: 1.10

Question: What about the “number of revertants per plate” value ([1]; TA 102, −S9, 0.224 μmol/plate) of the same molecule?
Answer: 281 ± 25 revertants/plate

Question: What about the “mutagenicity ratio (MR)” value ([1]; TA 102, −S9, 0.488 μmol/plate) of the same molecule?
Answer: 1.12

Question: And the “number of revertants per plate” value ([1]; TA 102, −S9, 0.488 μmol/plate)?
Answer: 286 ± 4.2 revertants/plate

Question: And the “mutagenicity ratio (MR)” value ([1]; TA 102, −S9, 0.896 μmol/plate)?
Answer: 1.19

Question: What about the “number of revertants per plate” value ([1]; TA 102, −S9, 0.896 μmol/plate) of the same molecule?
Answer: 303 ± 9.2 revertants/plate

Question: What about the “mutagenicity ratio (MR)” value ([1]; TA 102, −S9, 1.8 μmol/plate) of the same molecule?
Answer: 1.55

Question: And the “number of revertants per plate” value ([1]; TA 102, −S9, 1.8 μmol/plate)?
Answer: 395.7 ± 9 revertants/plate

Question: What about the “mutagenicity ratio (MR)” value ([1]; TA 102, −S9, 3.58 μmol/plate) of the same molecule?
Answer: 1.52

Question: And the “number of revertants per plate” value ([1]; TA 102, −S9, 3.58 μmol/plate)?
Answer: 387 ± 9.7 revertants/plate

Question: What about the “mutagenicity ratio (MR)” value ([2]; TA 100, +S9, 0.224 μmol/plate) of the same molecule?
Answer: 1.27

Question: What about the “number of revertants per plate” value ([2]; TA 100, +S9, 0.224 μmol/plate) of the same molecule?
Answer: 165 ± 13.2 revertants/plate

Question: What about the “mutagenicity ratio (MR)” value ([2]; TA 100, +S9, 0.488 μmol/plate) of the same molecule?
Answer: 1.18

Question: And the “number of revertants per plate” value ([2]; TA 100, +S9, 0.488 μmol/plate)?
Answer: 153 ± 13.1 revertants/plate

Question: And the “mutagenicity ratio (MR)” value ([2]; TA 100, +S9, 0.896 μmol/plate)?
Answer: 1.12

Question: What about the “number of revertants per plate” value ([2]; TA 100, +S9, 0.896 μmol/plate) of the same molecule?
Answer: 146 ± 5 revertants/plate

Question: What about the “mutagenicity ratio (MR)” value ([2]; TA 100, +S9, 1.8 μmol/plate) of the same molecule?
Answer: 1.26

Question: What about the “number of revertants per plate” value ([2]; TA 100, +S9, 1.8 μmol/plate) of the same molecule?
Answer: 163 ± 22.5 revertants/plate

Question: What about the “mutagenicity ratio (MR)” value ([2]; TA 100, +S9, 3.58 μmol/plate) of the same molecule?
Answer: 1.22

Question: And the “number of revertants per plate” value ([2]; TA 100, +S9, 3.58 μmol/plate)?
Answer: 158.3 ± 9.3 revertants/plate

Question: And the “mutagenicity ratio (MR)” value ([2]; TA 100, −S9, 0.224 μmol/plate)?
Answer: 1.21

Question: And the “number of revertants per plate” value ([2]; TA 100, −S9, 0.224 μmol/plate)?
Answer: 216.7 ± 10.2 revertants/plate

Question: What about the “mutagenicity ratio (MR)” value ([2]; TA 100, −S9, 0.488 μmol/plate) of the same molecule?
Answer: 1.25

Question: What about the “number of revertants per plate” value ([2]; TA 100, −S9, 0.488 μmol/plate) of the same molecule?
Answer: 224.5 ± 24.6 revertants/plate

Question: And the “mutagenicity ratio (MR)” value ([2]; TA 100, −S9, 0.896 μmol/plate)?
Answer: 1.48

Question: And the “number of revertants per plate” value ([2]; TA 100, −S9, 0.896 μmol/plate)?
Answer: 266.3 ± 8.4 revertants/plate

Question: And the “mutagenicity ratio (MR)” value ([2]; TA 100, −S9, 1.8 μmol/plate)?
Answer: 1.34

Question: And the “number of revertants per plate” value ([2]; TA 100, −S9, 1.8 μmol/plate)?
Answer: 239.7 ± 11.3 revertants/plate

Question: And the “mutagenicity ratio (MR)” value ([2]; TA 100, −S9, 3.58 μmol/plate)?
Answer: 1.8

Question: And the “number of revertants per plate” value ([2]; TA 100, −S9, 3.58 μmol/plate)?
Answer: 323.7 ± 10.2 revertants/plate

Question: And the “mutagenicity (AMES test, overall)” value ([2]; TA100 and TA102, with and without S9, at the concentrations used)?
Answer: did not show mutagenicity

Question: What about the “Cell Number avg (×106), total leukocytes” value [3] of the same molecule?
Answer: 3.2 ×106

Question: And the “Inhibition % (leukocyte infiltrate)” value [3]?
Answer: 42.85%

Question: For `NC(=O)NO` [HU, Hydroxyurea], which “concentration producing comparable activity on gamma-globin expression” value (gamma-globin mRNA) is on record?
Answer: 10 µM
